Measurements published in publication PMC6277767, “Broad and Region-Specific Impacts of the Synthetic Cannabinoid CP 55,940 in Adolescent and Adult Female Mouse Brains” (Frontiers in Molecular Neuroscience, 2018).

Test system: CD1 female mouse brain lipidome
Assay: Brain-region lipid levels (HPLC/MS/MS lipidomics) 2 h after single i.p. 3 mg/kg CP 55,940 vs vehicle
Format: in vivo
Method: The Bloomington Institutional Animal Care and Use Committee of Indiana University reviewed and approved the animal procedures. Female mice from the CD1 strain were utilized to match our study examining THC’s effects on the brain lipidome ([Leishman et al., 2018]). Mice were given a single i.p. injection of either 3 mg/kg CP or 1:1:18 cremophor:ethanol:saline vehicle (please refer to the section “3 mg/kg CP Is Relevant for Synthetic Cannabinoid Abuse and Has Stronger Effects on the Female Mouse Brain Lipidome During Adolescence” for a justification of dose and use of female mice). Three different age groups were given injections: PND 35 and PND 50 adolescents, and adult mice (PND 113). At least eight mice in each age group received CP and at least eight received vehicle. Matching the THC study time course ([Leishman et al., 2018]), mice were sacrificed via rapid decapitation 2 h after injection. Brains were immediately removed and flash-frozen in liquid nitrogen, and then stored at -80°C until dissections were performed. Brains were dissected on an ice-cold dissection plate into the following regions: STR, HIPP, CER, THAL, CTX, HYP, MID, and STEM. These abbreviations for these brain areas will be used exclusively when discussing the results generated by these specific dissections. Each dissected area was immediately placed in liquid nitrogen and then stored at -80°C until used for lipid extraction.
Tissue extracts were performed as previously described ([Bradshaw et al., 2006]; [Stuart et al., 2013]; [Raboune et al., 2014]; [Leishman et al., 2016a],[b], [2017], [2018]). First, samples were shock frozen in liquid nitrogen, weighed, and transferred to a centrifuge tube. The mass of the largest sample was multiplied by 50 to determine how many milliliters of HPLC-grade methanol (Fisher, Fair Lawn, NJ, United States) to add. Then, samples were spiked with 500 pmol deuterium-labeled NAGly (d8NAGly; Cayman Chemical, Ann Arbor, MI, United States). Samples were placed on ice in darkness for 2 h then individually homogenized and centrifuged at 19,000 × g for 20 min at 20°C. Supernatants were diluted with HPLC water (purified in house) to make a solution of 75% water, 25% supernatant. Lipids were partially purified on C18 solid phase extraction columns (Agilent, Palo Alto, CA, United States). A series of four elutions with 1.5 mL of 60%, 75%, 85%, and 100% methanol were collected ([Stuart et al., 2013]; [Leishman et al., 2016a],[b], [2018]).
As previously described ([Bradshaw et al., 2006]; [Tan et al., 2006]; [Smoum et al., 2010]; [Stuart et al., 2013]; [Tortoriello et al., 2013]; [Raboune et al., 2014]; [Leishman et al., 2016a],[b], [2017], [2018]), samples were analyzed using an Applied Biosystems API 3000 triple quadrupole mass spectrometer with electrospray ionization (Foster City, CA, United States). Using an Agilent XDB-C18 reversed phase analytical column and optimized mobile phase gradients, 20 μL from each elution were chromatographed. Two Shimadzu 10ADvp pumps (Columbia, MD, United States) provided the pressure for gradient elution. Mobile phase A: 20% methanol, 80% water (v/v) and 1 mM ammonium acetate (Sigma, St. Louis, MO, United States). Mobile phase B: 100% methanol, 1 mM ammonium acetate. Every method run began with 0% mobile phase B, reached 100% mobile phase B flowing at 0.2 mL/min, and gradually returned to 0% mobile phase B.
This screening library will be referred to as the lipidome when discussing data from this study. HPLC/MS/MS data were analyzed using Analyst software (Applied Biosystems) ([Bradshaw et al., 2006]; [Tan et al., 2006]; [Stuart et al., 2013]; [Tortoriello et al., 2013]; [Raboune et al., 2014]; [Leishman et al., 2016a],[b], [2017], [2018]). Chromatograms (Supplementary Figure 3) were generated by determining the retention time of analytes from the analytical column with a [M-1] or [M+1] parent peak and a fragmentation peak corresponding to the programmed values. […]

## CCCCCCC(C)(C)c1ccc([C@@H]2C[C@H](O)CC[C@H]2CCCO)c(O)c1 [CP 55,940]
PND 35 HIPP
  PGF2α level vs vehicle: ↑ (1-1.49 times higher than vehicle)
PND 35 HIPP, 65 detected
  number of lipids changed: 39
PND 35 HYP
  2-arachidonoyl glycerol level vs vehicle: ↓↓↓ (2-2.99 times lower than vehicle)
  2-linoleoyl glycerol level vs vehicle: ↓↓ (1.50-1.99 times lower than vehicle)
  2-oleoyl glycerol level vs vehicle: ↓↓ (1.50-1.99 times lower than vehicle)
  2-palmitoyl glycerol level vs vehicle: ↑ (1-1.49 times higher than vehicle)
  Arachidonic acid level vs vehicle: ↓ (1-1.49 times lower than vehicle)
  Linoleic acid level vs vehicle: ↓ (1-1.49 times lower than vehicle)
  N-arachidonoyl GABA level vs vehicle: ↓ (1-1.49 times lower than vehicle)
  N-arachidonoyl alanine level vs vehicle: ↓↓ (1.50-1.99 times lower than vehicle)
  N-arachidonoyl ethanolamine level vs vehicle: ↓ (1-1.49 times lower than vehicle)
  N-arachidonoyl glycine level vs vehicle: ↓ (1-1.49 times lower than vehicle)
  N-arachidonoyl phenylalanine level vs vehicle: ↓ (1-1.49 times lower than vehicle)
  N-arachidonoyl taurine level vs vehicle: ↓ (1-1.49 times lower than vehicle)
  N-docosahexaenoyl GABA level vs vehicle: ↓ (1-1.49 times lower than vehicle)
  N-docosahexaenoyl ethanolamine level vs vehicle: ↓↓ (1.50-1.99 times lower than vehicle)
  N-linoleoyl alanine level vs vehicle: ↓ (1-1.49 times lower than vehicle)
  N-oleoyl GABA level vs vehicle: ↓ (1-1.49 times lower than vehicle)
  N-oleoyl alanine level vs vehicle: ↓ (1-1.49 times lower than vehicle)
  N-oleoyl ethanolamine level vs vehicle: ↓↓ (1.50-1.99 times lower than vehicle)
  N-palmitoyl ethanolamine level vs vehicle: ↓↓ (1.50-1.99 times lower than vehicle)
  N-palmitoyl leucine level vs vehicle: ↑ (1-1.49 times higher than vehicle)
  N-stearoyl ethanolamine level vs vehicle: ↓ (1-1.49 times lower than vehicle)
  Oleic Acid level vs vehicle: ↓ (1-1.49 times lower than vehicle)
  PGE2 level vs vehicle: ↓ (1-1.49 times lower than vehicle)
  PGF2α level vs vehicle: ↑ (1-1.49 times higher than vehicle)
  phosphoLEA level vs vehicle: ↑ (1-1.49 times higher than vehicle)
PND 35 MID
  2-linoleoyl glycerol level vs vehicle: ↓ (1-1.49 times lower than vehicle)
  6-ketoPGF1α level vs vehicle: ↓ (1-1.49 times lower than vehicle)
  Arachidonic acid level vs vehicle: ↓ (1-1.49 times lower than vehicle)
  N- stearoyl valine level vs vehicle: ↑ (1-1.49 times higher than vehicle)
  N-arachidonoyl GABA level vs vehicle: ↓ (1-1.49 times lower than vehicle)
  N-arachidonoyl alanine level vs vehicle: ↓ (1-1.49 times lower than vehicle)
  N-arachidonoyl glycine level vs vehicle: ↓ (1-1.49 times lower than vehicle)
  N-arachidonoyl serine level vs vehicle: ↓ (1-1.49 times lower than vehicle)
  N-arachidonoyl taurine level vs vehicle: ↓ (1-1.49 times lower than vehicle)
  N-arachidonoyl tyrosine level vs vehicle: ↓ (1-1.49 times lower than vehicle)
  N-docosahexaenoyl GABA level vs vehicle: ↓ (1-1.49 times lower than vehicle)
  N-docosahexaenoyl alanine level vs vehicle: ↓ (1-1.49 times lower than vehicle)
  N-docosahexaenoyl glycine level vs vehicle: ↓ (1-1.49 times lower than vehicle)
  N-docosahexaenoyl leucine level vs vehicle: ↑ (1-1.49 times higher than vehicle)
  N-docosahexaenoyl methionine level vs vehicle: ↓ (1-1.49 times lower than vehicle)
  N-docosahexaenoyl serine level vs vehicle: ↓ (1-1.49 times lower than vehicle)
  N-docosahexaenoyl tyrosine level vs vehicle: ↓ (1-1.49 times lower than vehicle)
  N-docosahexaenoyl valine level vs vehicle: ↑↑ (1.50-1.99 times higher than vehicle)
  N-linoleoyl ethanolamine level vs vehicle: ↑ (1-1.49 times higher than vehicle)
  N-oleoyl GABA level vs vehicle: ↓ (1-1.49 times lower than vehicle)
  N-oleoyl ethanolamine level vs vehicle: ↓ (1-1.49 times lower than vehicle)
  N-oleoyl phenylalanine level vs vehicle: ↑ (1-1.49 times higher than vehicle)
  N-oleoyl valine level vs vehicle: ↑ (1-1.49 times higher than vehicle)
  N-palmitoyl leucine level vs vehicle: ↑ (1-1.49 times higher than vehicle)
  N-palmitoyl phenylalanine level vs vehicle: ↑ (1-1.49 times higher than vehicle)
  N-palmitoyl valine level vs vehicle: ↑↑ (1.50-1.99 times higher than vehicle)
  N-stearoyl methionine level vs vehicle: ↑ (1-1.49 times higher than vehicle)
  N-stearoyl tyrosine level vs vehicle: ↓ (1-1.49 times lower than vehicle)
  PGE2 level vs vehicle: ↑ (1-1.49 times higher than vehicle)
  PGF2α level vs vehicle: ↑ (1-1.49 times higher than vehicle)
  phosphoLEA level vs vehicle: ↑ (1-1.49 times higher than vehicle)
PND 35 STEM
  2-arachidonoyl glycerol level vs vehicle: ↓ (1-1.49 times lower than vehicle)
  2-linoleoyl glycerol level vs vehicle: ↓ (1-1.49 times lower than vehicle)
  N- stearoyl valine level vs vehicle: ↑ (1-1.49 times higher than vehicle)
  N-arachidonoyl GABA level vs vehicle: ↓ (1-1.49 times lower than vehicle)
  N-arachidonoyl taurine level vs vehicle: ↓ (1-1.49 times lower than vehicle)
  N-docosahexaenoyl leucine level vs vehicle: ↑ (1-1.49 times higher than vehicle)
  N-docosahexaenoyl valine level vs vehicle: ↑ (1-1.49 times higher than vehicle)
  N-oleoyl leucine level vs vehicle: ↑ (1-1.49 times higher than vehicle)
  N-oleoyl proline level vs vehicle: ↑ (1-1.49 times higher than vehicle)
  N-oleoyl valine level vs vehicle: ↑ (1-1.49 times higher than vehicle)
  N-palmitoyl leucine level vs vehicle: ↑ (1-1.49 times higher than vehicle)
  N-palmitoyl phenylalanine level vs vehicle: ↑ (1-1.49 times higher than vehicle)
  N-palmitoyl proline level vs vehicle: ↑ (1-1.49 times higher than vehicle)
  N-palmitoyl tryptophan level vs vehicle: ↓ (1-1.49 times lower than vehicle)
  N-palmitoyl valine level vs vehicle: ↑ (1-1.49 times higher than vehicle)
  PGE2 level vs vehicle: ↑ (1-1.49 times higher than vehicle)
PND 35 STEM, 70 detected
  number of lipids changed: 16
PND 35 STR
  2-arachidonoyl glycerol level vs vehicle: ↓ (1-1.49 times lower than vehicle)
  2-linoleoyl glycerol level vs vehicle: ↓↓ (1.50-1.99 times lower than vehicle)
  2-oleoyl glycerol level vs vehicle: ↓ (1-1.49 times lower than vehicle)
  N- stearoyl valine level vs vehicle: ↑ (1-1.49 times higher than vehicle)
  N-arachidonoyl GABA level vs vehicle: ↓↓ (1.50-1.99 times lower than vehicle)
  N-arachidonoyl alanine level vs vehicle: ↓ (1-1.49 times lower than vehicle)
  N-arachidonoyl glycine level vs vehicle: ↓ (1-1.49 times lower than vehicle)
  N-arachidonoyl phenylalanine level vs vehicle: ↓ (1-1.49 times lower than vehicle)
  N-arachidonoyl serine level vs vehicle: ↓↓ (1.50-1.99 times lower than vehicle)
  N-arachidonoyl taurine level vs vehicle: ↓ (1-1.49 times lower than vehicle)
  N-arachidonoyl tyrosine level vs vehicle: ↓ (1-1.49 times lower than vehicle)
  N-docosahexaenoyl GABA level vs vehicle: ↓ (1-1.49 times lower than vehicle)
  N-docosahexaenoyl alanine level vs vehicle: ↓ (1-1.49 times lower than vehicle)
  N-docosahexaenoyl ethanolamine level vs vehicle: ↓ (1-1.49 times lower than vehicle)
  N-docosahexaenoyl leucine level vs vehicle: ↑ (1-1.49 times higher than vehicle)
  N-docosahexaenoyl serine level vs vehicle: ↓ (1-1.49 times lower than vehicle)
  N-oleoyl GABA level vs vehicle: ↓ (1-1.49 times lower than vehicle)
  N-oleoyl alanine level vs vehicle: ↓ (1-1.49 times lower than vehicle)
  N-oleoyl ethanolamine level vs vehicle: ↓↓ (1.50-1.99 times lower than vehicle)
  N-oleoyl glycine level vs vehicle: ↓ (1-1.49 times lower than vehicle)
  N-palmitoyl ethanolamine level vs vehicle: ↓ (1-1.49 times lower than vehicle)
  N-palmitoyl leucine level vs vehicle: ↑ (1-1.49 times higher than vehicle)
  N-palmitoyl valine level vs vehicle: ↑↑ (1.50-1.99 times higher than vehicle)
  N-stearoyl alanine level vs vehicle: ↓ (1-1.49 times lower than vehicle)
  N-stearoyl leucine level vs vehicle: ↓ (1-1.49 times lower than vehicle)
  N-stearoyl serine level vs vehicle: ↓ (1-1.49 times lower than vehicle)
  PGE2 level vs vehicle: ↑ (1-1.49 times higher than vehicle)
